Test results reported in article PMC12167809 (The Journal of Biological Chemistry, 2025).

Tested on: β-TrCP1:β-catenin interaction
Format: binding, human
Details: saturating concentrations of glue, TR-FRET

`COc1cc2c(cc1OC)CN(C(=O)c1c(Sc3c(Cl)cccc3Cl)cc(C(F)(F)F)[nH]c1=O)C2` [NRX-252262, 4-((2,6-dichlorophenyl)thio)-3-(5,6-dimethoxyisoindoline-2-carbonyl)-6-(trifluoromethyl)pyridin-2(1H)-one] was tested, and the “Effect on the β-TrCP1:β-catenin interaction” value was “dramatically enhances the interaction between β-TrCP1 and β-catenin”.
